Measurements: patent publication US20240041042A1, “1-(PYRIDYL)-5-AZINYLPYRAZOLE DERIVATIVES, AND THEIR USE FOR CONTROL OF UNDESIRED PLANT GROWTH” (Bayer Aktiengesellschaft, priority 2020, published 2024)
Where two headings read alike, the source gives them in different places.

How the values were obtained:
Assay type in all cases: in vivo
[1] = test system: Amaranthus retroflexus (AMARE); experiment: Pre-emergence herbicidal action against AMARE; conditions: 320 g/ha, visual scoring after about 3 weeks vs untreated controls
Method in brief: (§1)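 Application rates ran to 320 g/ha or lower, with several dosages tested on the same weeds. The compound, as wettable powder or emulsion concentrate, is sprayed pre-emergence onto soil over sown seeds; greenhouse growth follows, and effect is rated visually after roughly 3 weeks.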

Setaria viridis (SETVI) [2] = experiment: Pre-emergence herbicidal action against SETVI
Method in brief: as §1

[3] = test system: Alopecurus myosuroides (ALOMY); experiment: Post-emergence herbicidal action against ALOMY; conditions: visual rating about 3 weeks after treatment vs untreated controls (100% = plants have died, 0% = like control plants)
Method in brief: (§2)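 Doses of 320 g/ha or lower, suffixes a, b and c marking different dosages, were applied post-emergence at the one-leaf stage in 600 l/ha water with 0.5% additive. Damage was assessed visually after about 3 weeks in the greenhouse.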

Viola tricolor (VIOTR) [4] = experiment: Pre-emergence herbicidal action against VIOTR; conditions: 320 g/ha, Viola tricolor
Method in brief: as §1

Setaria viridis (SETVI) [5] = experiment: Post-emergence herbicidal action against SETVI
Method in brief: as §2

[6] = test system: Digitaria sanguinalis (DIGSA); experiment: Post-emergence herbicidal action against DIGSA; conditions: visual rating about 3 weeks after treatment
Method in brief: as §2

[7] = test system: Echinochloa crus-galli (ECHCG); experiment: Post-emergence herbicidal action against ECHCG; conditions: dosage 320 g/ha
Method in brief: as §2

Avena fatua (AVEFA) [8] = experiment: Post-emergence herbicidal action against AVEFA; conditions: visual rating about 3 weeks after treatment
Method in brief: as §2

[9] = test system: Digitaria sanguinalis (DIGSA); experiment: Pre-emergence herbicidal action against DIGSA
Method in brief: as §1

Lolium rigidum (LOLRI) [10] = experiment: Pre-emergence herbicidal action against LOLRI; conditions: dosage 320 g/ha
Method in brief: as §1

Avena fatua (AVEFA) [11] = experiment: Pre-emergence herbicidal action against AVEFA; conditions: 320 g/ha, visual scoring after about 3 weeks vs untreated controls
Method in brief: as §1

[12] = test system: Alopecurus myosuroides (ALOMY); experiment: Pre-emergence herbicidal action against ALOMY; conditions: scored visually after about 3 weeks, 100% = plants have died
Method in brief: as §1

Lolium rigidum (LOLRI) [13] = experiment: Post-emergence herbicidal action against LOLRI; conditions: dosage 320 g/ha
Method in brief: as §2

[14] = test system: Pharbitis purpurea (PHBPU); experiment: Post-emergence herbicidal action against PHBPU; conditions: dosage 320 g/ha
Method in brief: as §2

[15] = test system: Verconica persica (VERPE); experiment: Post-emergence herbicidal action against VERPE; conditions: 320 g/ha, VERPE
Method in brief: as §2

Glycine max (GLXMA) = conditions: crop plant compatibility
Method in brief: (§3)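 Crop injury rated visually in percent against untreated plants roughly 3 weeks after treatment (0% no effect, 100% plants dead). Compounds, as WP or EC with 0.5% additive in 600 l/ha water, were applied to the covering soil right after sowing; greenhouse growth. Suffixes a, b, c denote different dosages.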

Zea mays (ZEAMX) [16] = conditions: crop plant compatibility; for Pre-emergence action against ZEAMX in %: in comparison to untreated controls
Method in brief: as §3

Oryza sativa (ORYSA) [17] = conditions: crop plant compatibility; for Pre-emergence action against ORYSA in %: in comparison to untreated controls
Method in brief: as §3

Brassica napus (BRSNW) = conditions: crop plant compatibility, in comparison to untreated controls
Method in brief: as §3

[18] = test system: Triticum aestivum (TRZAS); conditions: crop plant compatibility
Method in brief: as §3

Zea mays (ZEAMX) [19] = conditions: for Post-emergence action against ZEAMX in %: crop plant compatibility, effect vs untreated controls
Method in brief: (§4)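 Test crops were treated 2 to 3 weeks after sowing, once they reached one leaf, by spraying compound in water with 0.5% additive at 600 l/ha. Visual scoring compared them with untreated controls roughly 3 weeks on, and appendices a, b and c denote different doses.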

Oryza sativa (ORYSA) [20] = conditions: crop plant compatibility
Method in brief: as §4

[21] = test system: Verconica persica (VERPE); experiment: Pre-emergence herbicidal action against VERPE; conditions: dosage 320 g/ha
Method in brief: as §1

Viola tricolor (VIOTR) [22] = experiment: Post-emergence herbicidal action against VIOTR; conditions: 320 g/ha
Method in brief: as §2

[23] = test system: Polygonum convolvulus (POLCO); experiment: Pre-emergence herbicidal action against POLCO
Method in brief: as §1

[24] = test system: Matricaria inodora (MATIN); experiment: Pre-emergence herbicidal action against MATIN; conditions: dosage 320 g/ha
Method in brief: as §1

[25] = test system: Echinochloa crus-galli (ECHCG); experiment: Pre-emergence herbicidal action against ECHCG; conditions: dosage 320 g/ha
Method in brief: as §1

[26] = test system: Amaranthus retroflexus (AMARE); experiment: Post-emergence herbicidal action against AMARE; conditions: 320 g/ha, visual rating about 3 weeks after treatment
Method in brief: as §2

[27] = test system: Triticum aestivum (TRZAS); conditions: crop plant compatibility, 80 g/ha, effect vs untreated controls
Method in brief: as §4

[28] = 20 g/ha, effect vs untreated controls
[29] = 80 g/ha, effect in comparison to untreated controls
[30] = pre-emergence, 80 g/ha, in comparison to untreated controls

COC(=O)[C@@H](C)Oc1nn(-c2ccc(F)cn2)c(-c2ccc(F)nc2)c1Br [Example I-11]
Pre-emergence action against AMARE in % [1]: 100% | Pre-emergence action against SETVI in % (Setaria viridis (SETVI) [2]; dosage 80 g/ha): 90% | Pre-emergence action against SETVI in % (Setaria viridis (SETVI) [2]; dosage 320 g/ha): 100% | Post-emergence action against ALOMY in % ([3]; 80 g/ha): 90% | Post-emergence action against ALOMY in % ([3]; 320 g/ha): 90% | Pre-emergence action against VIOTR in % (Viola tricolor (VIOTR) [4]): 100% | Post-emergence action against SETVI in % (Setaria viridis (SETVI) [5]; dosage 80 g/ha): 80% | Post-emergence action against SETVI in % (Setaria viridis (SETVI) [5]; dosage 320 g/ha): 90% | Post-emergence action against DIGSA in % ([6]; 80 g/ha): 90% | Post-emergence action against DIGSA in % ([6]; 320 g/ha): 90% | Post-emergence action against ECHCG in % [7]: 80% | Post-emergence action against AVEFA in % (Avena fatua (AVEFA) [8]; 80 g/ha): 80% | Post-emergence action against AVEFA in % (Avena fatua (AVEFA) [8]; 320 g/ha): 90% | Pre-emergence action against DIGSA in % ([9]; 80 g/ha, visual scoring after about 3 weeks vs untreated controls): 100% | Pre-emergence action against DIGSA in % ([9]; dosage 320 g/ha): 100% | Pre-emergence action against LOLRI in % (Lolium rigidum (LOLRI) [10]): 100% | Pre-emergence action against AVEFA in % (Avena fatua (AVEFA) [11]): 90% | Pre-emergence action against ALOMY ([12]; 80 g/ha): 90% | Pre-emergence action against ALOMY ([12]; 320 g/ha): 100% | Post-emergence action against LOLRI in % (Lolium rigidum (LOLRI) [13]): 80% | Post-emergence action against PHBPU in % [14]: 90% | Post-emergence action against VERPE in % [15]: 80% | Pre-emergence action against GLXMA (Glycine max (GLXMA); [28]): 10% | Pre-emergence action against ZEAMX (Zea mays (ZEAMX) [16]; [28]): 10% | Pre-emergence action against ZEAMX in % (Zea mays (ZEAMX) [16]; 80 g/ha): 10% | Pre-emergence action against ORYSA (Oryza sativa (ORYSA) [17]; [28]): 0% | Pre-emergence action against ORYSA in % (Oryza sativa (ORYSA) [17]; 80 g/ha): 20% | Pre-emergence action against BRSNW in % (Brassica napus (BRSNW); 20 g/ha): 10% | Pre-emergence action against BRSNW in % (Brassica napus (BRSNW); 80 g/ha): 20% | Pre-emergence action against TRZAS [18, 28]: 0% | Post-emergence action against ZEAMX in % (crop plant compatibility) (Zea mays (ZEAMX) [19]; 20 g/ha, ZEAMX, effect in comparison to untreated controls): 10% | Post-emergence action against ORYSA in % (Oryza sativa (ORYSA) [20]; [28]): 0% | Post-emergence action against ORYSA in % (Oryza sativa (ORYSA) [20]; [29]): 0% | Post-emergence action against ORYSA in % (Oryza sativa (ORYSA) [20]; 320 g/ha, effect in comparison to untreated controls): 10% | Pre-emergence action against VERPE in % [21]: 90% | Post-emergence action against VIOTR in % (Viola tricolor (VIOTR) [22]): 80% | Pre-emergence action against POLCO in % ([23]; dosage 80 g/ha): 90% | Pre-emergence action against POLCO in % ([23]; dosage 320 g/ha): 90% | Pre-emergence action against MATIN in % [24]: 90% | Pre-emergence action against ECHCG in % [25]: 80%

COC(=O)C=CC(C)NC(=O)COc1nn(-c2ccccn2)c(-c2ccc(F)nc2)c1Br (stereo not drawn) [Example I-345]
Post-emergence action against AMARE in % [26]: 80% | Pre-emergence action against DIGSA in % ([9]; dosage 320 g/ha): 90% | Post-emergence action against VERPE in % [15]: 80% | Pre-emergence action against GLXMA in % (Glycine max (GLXMA); [30]): 0% | Pre-emergence action against ZEAMX in % (Zea mays (ZEAMX) [16]; 80 g/ha): 0% | Pre-emergence action against ZEAMX in % (Zea mays (ZEAMX) [16]; 320 g/ha): 10% | Pre-emergence action against ORYSA in % (Oryza sativa (ORYSA) [17]; 80 g/ha): 10% | Pre-emergence action against ORYSA in % (Oryza sativa (ORYSA) [17]; 320 g/ha): 20% | Pre-emergence action against BRSNW in % (Brassica napus (BRSNW); 80 g/ha): 20% | Pre-emergence action against TRZAS in % [18, 30]: 10% | Post-emergence action against ZEAMX in % (Zea mays (ZEAMX) [19]; 80 g/ha): 0% | Post-emergence action against ZEAMX in % (Zea mays (ZEAMX) [19]; 320 g/ha): 10% | Post-emergence action against ORYSA in % (Oryza sativa (ORYSA) [20]; [29]): 20% | Post-emergence action against TRZAS in % [27]: 10%
